Experimental data from the supplement of paper PMC10307832.

How the values were obtained:
Test in all cases: relative viability (nuclei count vs DMSO), 5 days (fraction); higher = more cells survive
[1] = compound: O=C(Nc1c[nH]nc1-c1nc2ccc(CN3CCOCC3)cc2[nH]1)NC1CC1 [AT9283] + Cc1nc(NC(=O)N2CCC[C@H]2C(N)=O)sc1-c1ccnc(C(C)(C)C(F)(F)F)c1 [Alpelisib] (partner 2 µM)
Method in brief: (§1)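 Lung cancer cell lines were seeded in 1536-well plates and dosed by pin tool the next day, with either a single drug or a fixed anchor-drug dose combined with five library-drug doses (not always all listed) spaced in √10 steps. Five days later, one step fixed the cells and stained their nuclei (final 0.05% Triton X-100, 1% formaldehyde, 1 ug/ml Hoechst), and nuclei were counted on 4× images. Relative viability is the nuclei count in treated wells divided by the count in vehicle wells, and each value is the median of duplicate plates.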

[2] = compound: C#Cc1cccc(Nc2ncnc3cc(OCCOC)c(OCCOC)cc23)c1 [Erlotinib] + COc1cccc2cc(-c3nc([C@H]4CC[C@H](C(=O)O)CC4)n4ncnc(N)c34)[nH]c12 [OSI-027] (partner 0.5 µM)
Method in brief: as §1

[3] = compound: O=C(Nc1c[nH]nc1-c1nc2ccc(CN3CCOCC3)cc2[nH]1)NC1CC1 [AT9283] + COc1cc2c(Oc3ccc(NC(=O)C4(C(=O)Nc5ccc(F)cc5)CC4)cc3F)ccnc2cc1OCCCN1CCOCC1 [Foretinib] (partner 0.25 µM)
Method in brief: as §1

[4] = compound: O=C(Nc1c[nH]nc1-c1nc2ccc(CN3CCOCC3)cc2[nH]1)NC1CC1 [AT9283] + Cc1nc(Nc2ncc(C(=O)Nc3c(C)cccc3Cl)s2)cc(N2CCN(CCO)CC2)n1 [Dasatinib] (partner 0.075 µM)
Method in brief: as §1

[5] = compound: C#Cc1cccc(Nc2ncnc3cc(OCCOC)c(OCCOC)cc23)c1 [Erlotinib] + Nc1nc2[nH]cc(CCc3ccc(C(=O)N[C@@H](CCC(=O)O)C(=O)O)cc3)c2c(=O)[nH]1 [Pemetrexed] (partner 0.2 µM)
Method in brief: as §1

| Cell Line | relative viability ([1]; first compound 0.003 µM) | relative viability ([1]; first compound 0.03 µM) | relative viability ([1]; first compound 0.09487 µM) | relative viability ([1]; first compound 0.3 µM) | relative viability ([2]; first compound 0.02 µM) | relative viability ([2]; first compound 0.2 µM) | relative viability ([2]; first compound 0.6325 µM) | relative viability ([2]; first compound 2 µM) | relative viability ([3]; first compound 0.003 µM) | relative viability ([3]; first compound 0.03 µM) | relative viability ([3]; first compound 0.09487 µM) | relative viability ([3]; first compound 0.3 µM) | relative viability ([4]; first compound 0.003 µM) | relative viability ([4]; first compound 0.03 µM) | relative viability ([4]; first compound 0.09487 µM) | relative viability ([4]; first compound 0.3 µM) | relative viability ([5]; first compound 0.02 µM) | relative viability ([5]; first compound 0.2 µM) | relative viability ([5]; first compound 0.6325 µM) | relative viability ([5]; first compound 2 µM) |
| --- | --- | --- | --- | --- | --- | --- | --- | --- | --- | --- | --- | --- | --- | --- | --- | --- | --- | --- | --- | --- |
| NCI-H661 | 0.627 | 0.427 | 0.329 | 0.36 | 0.748 | 0.707 | 0.655 | 0.443 | 1.01 | 0.472 | 0.384 | 0.364 | 0.862 | 0.355 | 0.307 | 0.26 | 0.925 | 0.841 | 0.838 | 0.828 |
| NCI-H322M | 0.846 | 0.906 | 0.544 | 0.396 | 0.533 | 0.483 | 0.406 | 0.394 | 0.958 | 0.544 | 0.41 | 0.462 | 0.257 | 0.236 | 0.224 | 0.223 | 0.604 | 0.548 | 0.521 | 0.507 |
| LCLC-97TM1 | 0.198 | 0.151 | 0.11 | 0.111 | 0.697 | 0.553 | 0.504 | 0.489 | 0.938 | 0.49 | 0.163 | 0.176 | 0.798 | 0.492 | 0.255 | 0.162 | 0.22 | 0.201 | 0.176 | 0.155 |
| NCI-H2405 | 0.881 | 0.551 | 0.236 | 0.15 | 0.701 | – | 0.614 | 0.591 | 1.05 | 0.82 | 0.352 | 0.312 | 0.177 | 0.185 | 0.132 | 0.107 | 0.893 | 1.1 | 1.06 | 1.09 |
| NCI-H647 | 1.11 | 0.355 | 0.128 | 0.124 | 0.594 | 0.606 | – | 0.449 | 1.41 | 0.396 | 0.273 | 0.202 | 0.15 | 0.114 | 0.036 | 0.0661 | 0.173 | 0.187 | 0.19 | 0.151 |
| NCI-H650 | 1 | 0.951 | 0.252 | 0.162 | 0.506 | 0.594 | 0.515 | 0.405 | 1.08 | 0.958 | 0.332 | 0.154 | 0.425 | 0.433 | 0.219 | 0.175 | 0.966 | 0.852 | 0.991 | 1 |
| LU99A | 0.489 | 0.222 | 0.144 | 0.152 | 0.295 | 0.303 | 0.284 | 0.259 | 0.751 | 0.34 | 0.233 | 0.237 | 0.546 | 0.195 | 0.229 | 0.247 | 0.166 | 0.196 | 0.16 | 0.151 |
| EKVX | 0.934 | 0.726 | 0.356 | 0.218 | 0.679 | 0.506 | 0.34 | 0.187 | 0.775 | 0.728 | 0.626 | 0.257 | 0.501 | 0.413 | 0.241 | 0.195 | 0.411 | 0.283 | 0.286 | 0.19 |
| NCI-H2087 | 1.22 | 0.658 | 0.259 | 0.165 | 0.615 | – | 0.533 | 0.384 | 1.03 | 0.388 | 0.195 | 0.132 | 0.765 | 0.309 | 0.122 | 0.0986 | 0.753 | 0.704 | 0.728 | 0.701 |
| HCC-827 | 0.96 | 0.856 | 0.349 | 0.212 | 0.411 | 0.15 | 0.112 | 0.126 | 1.05 | 0.745 | 0.331 | 0.244 | 0.271 | 0.266 | 0.26 | 0.205 | 0.182 | 0.147 | 0.139 | 0.156 |
| A-427 | 1.04 | 1.01 | 0.209 | 0.176 | 0.449 | 0.537 | 0.468 | 0.482 | 1.01 | 1.04 | 0.24 | 0.216 | 0.698 | 0.402 | 0.124 | 0.131 | 0.967 | 1.04 | 1.06 | 1.01 |
| NCI-H460 | 0.516 | 0.43 | 0.0573 | 0.017 | – | 0.547 | 0.469 | 0.217 | 0.983 | 0.907 | 0.184 | 0.0594 | 0.395 | 0.495 | 0.265 | 0.0688 | 0.0628 | 0.0521 | 0.0611 | 0.0588 |
| NCI-H1734 | 0.696 | 0.497 | 0.283 | 0.292 | 0.621 | 0.586 | 0.608 | 0.504 | 0.904 | 0.309 | 0.334 | 0.246 | 0.332 | 0.301 | 0.187 | 0.158 | 0.45 | 0.39 | 0.4 | 0.397 |
| NCI-H2009 | 1.13 | 1.05 | 0.734 | 0.401 | 0.759 | 0.653 | 0.65 | 0.414 | 1.29 | 1.07 | 0.438 | 0.29 | 0.308 | 0.212 | 0.124 | 0.099 | 1.07 | 0.999 | 1.01 | 1.04 |
| NCI-H1993 | 0.789 | 0.612 | 0.552 | 0.515 | 0.6 | 0.534 | 0.555 | 0.699 | 0.82 | 0.603 | 0.61 | 0.534 | 0.618 | 0.557 | 0.462 | 0.448 | 0.63 | 0.466 | 0.544 | 0.564 |
